Legend:
L6 = assay: Cytotoxicity against rat L6 cells after 6 days by resazurin assay; assay type: cell-based; details: L6, 144 h
[1] = Selectivity index, ratio of IC50 for rat L6 cells to IC50 for bloodstream forms of Trypanosoma brucei 221; assay type: toxicity, cell-based; details: L6 cells versus bloodstream forms of Trypanosoma brucei 221, read-out: Ratio IC50
Acetylcholinesterase = Acetylcholinesterase (Homo sapiens, UniProt P22303); assay: Inhibition of human recombinant AChE using acetylthiocholine iodide as substrate preincubated for 20 mins by Ellman method
Chain of Acetylcholinesterase (P22303 whole entry): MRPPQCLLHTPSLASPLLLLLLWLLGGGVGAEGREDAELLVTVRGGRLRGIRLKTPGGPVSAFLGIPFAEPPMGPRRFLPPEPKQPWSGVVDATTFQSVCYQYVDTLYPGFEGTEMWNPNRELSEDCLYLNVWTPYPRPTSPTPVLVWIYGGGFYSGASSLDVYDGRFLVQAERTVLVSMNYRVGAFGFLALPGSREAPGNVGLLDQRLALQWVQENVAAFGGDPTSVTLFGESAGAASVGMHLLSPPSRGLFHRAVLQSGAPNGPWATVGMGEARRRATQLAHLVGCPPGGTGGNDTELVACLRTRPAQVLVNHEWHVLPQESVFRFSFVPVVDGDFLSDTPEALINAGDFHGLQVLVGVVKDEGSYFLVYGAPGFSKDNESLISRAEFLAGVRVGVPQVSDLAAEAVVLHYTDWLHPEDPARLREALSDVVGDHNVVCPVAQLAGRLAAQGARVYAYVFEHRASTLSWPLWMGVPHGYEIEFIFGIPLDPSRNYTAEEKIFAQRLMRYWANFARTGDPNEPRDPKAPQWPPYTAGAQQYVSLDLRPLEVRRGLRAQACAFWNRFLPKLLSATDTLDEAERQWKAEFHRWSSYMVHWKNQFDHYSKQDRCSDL

[2] = Effective permeability of the compound by PAMPA assay; assay type: ADME; details: read-out: Peff
Plasmodium falciparum = assay: Antiplamodial activity against chloroquine-resistant bloodstream forms of Plasmodium falciparum K1 infected in human A+ erythrocytes assessed as growth inhibition after 48 hrs by spectrophotometry; assay type: functional, organism-based; details: K1, 48 h
Trypanosoma brucei = assay: Trypanocidal activity against bloodstream forms of Trypanosoma brucei 221 assessed as growth inhibition after 48 hrs by resazurin assay; assay type: functional, organism-based; details: Trypanosoma brucei, 221, 48 h

Compound	IC50 (L6)	selectivity ratio [1]	IC50 (Acetylcholinesterase)	Papp [2]	IC50 (Plasmodium falciparum)	IC50 (Trypanosoma brucei)	IC90 (Trypanosoma brucei)
CC1=C[C@H]2Cc3nc4cc(Cl)ccc4c(NCCCCCCCCCCCCNc4c5c(nc6cc(Cl)ccc46)C[C@@H]4C=C(C)C[C@H]5C4)c3[C@@H](C1)C2	28500 nM	37.5	431 nM	17.4 ×10⁻⁶ cm/s	> 6000 nM	760 nM	990 nM
C[C@@H]1CC[C@H]2[C@@H](C)C(=O)O[C@@H]3O[C@@]4(C)CC[C@@H]1[C@]32OO4 [ARTEMISININ]	–	–	–	–	91 nM	–	–
CC1=C[C@H]2Cc3nc4cc(Cl)ccc4c(NCCCCCCNc4c5c(nc6cc(Cl)ccc46)C[C@@H]4C=C(C)C[C@H]5C4)c3[C@@H](C1)C2	1610 nM	1.8	192 nM	11.1 ×10⁻⁶ cm/s	> 6000 nM	890 nM	1090 nM
CC1=C[C@H]2Cc3nc4cc(Cl)ccc4c(NCCCCCCCCNc4c5c(nc6cc(Cl)ccc46)C[C@@H]4C=C(C)C[C@H]5C4)c3[C@@H](C1)C2	4920 nM	9.5	72.5 nM	13.9 ×10⁻⁶ cm/s	> 6000 nM	520 nM	740 nM
CC1=CC2Cc3nc4cc(Cl)ccc4c(N)c3C(C1)C2 (stereo unspecified) [HUPRINE Y]	–	–	–	–	> 10000 nM	–	–
CC1=C[C@H]2Cc3nc4cc(Cl)ccc4c(NCCCCCCCCCCNc4c5c(nc6cc(Cl)ccc46)C[C@@H]4C=C(C)C[C@H]5C4)c3[C@@H](C1)C2	7710 nM	15.4	17.5 nM	8.7 ×10⁻⁶ cm/s	> 6000 nM	500 nM	730 nM
CC1=C[C@H]2Cc3nc4cc(Cl)ccc4c(NCc4ccc(CNc5c6c(nc7cc(Cl)ccc57)C[C@@H]5C=C(C)C[C@H]6C5)cc4)c3[C@@H](C1)C2	16100 nM	28.2	–	8.3 ×10⁻⁶ cm/s	> 6000 nM	570 nM	750 nM

Source: ChEMBL document CHEMBL3351941, “Synthesis and antiprotozoal activity of oligomethylene- and p-phenylene-bis(methylene)-linked bis(+)-huprines” (Bioorg Med Chem Lett, 2014)
